Columns and labels:
[1] = system: Polygonum convolvulus; test: Post-emergence action against weeds, greenhouse, visual scoring of control; assay type: in vivo; settings: 11 days after application
Protocol: (§1) Seeds or rhizome pieces of monocotyledonous and dicotyledonous weeds were placed in sandy loam soil in plastic pots, covered with soil and cultivated in a greenhouse under good growth conditions. Three weeks after sowing, the test plants were treated at the 2- to 4-leaf stage. The compounds according to the invention, formulated as wettable powders or as emulsion concentrates, were sprayed onto the green parts of the plants in various dosages at a water application rate of 100 to 800 l/ha (converted).
(§2) 0%=no control 100%=complete control

[2] = system: Veronica persica; test: as above; assay type: in vivo; settings: 11 days after application
Protocol: as §1, with “(converted). After the test plants had been left to stand in the greenhouse for 10 to 28 days under optimum growth conditions, the effect of the preparations was scored visually in comparison to untreated controls.” for “(converted).”
as §2

COc1c(Cl)ccc(Cl)c1C(=O)O [Compound B1-1, dicamba]
Polygonum convolvulus Control in % ([1]; 100 g of ai/ha): 40%

O=C(O)c1nc(Cl)ccc1Cl [Compound B2-1, clopyralid]
Veronica persica Control in % ([2]; 50 g of ai/ha): 0%

Nc1c(Cl)c(F)nc(OCC(=O)O)c1Cl [Compound B2-2, fluoroxypyr]
Veronica persica Control in % ([2]; 80 g of ai/ha): 60%

Nc1c(Cl)c(Cl)nc(C(=O)O)c1Cl [Compound B2-4, picloram]
Polygonum convolvulus Control in % ([1]; 80 g of ai/ha): 20%

Nc1nc(C2CC2)nc(C(=O)[O-])c1Cl.[K+] [Compound B6-1, aminocyclopyrachlor]
Polygonum convolvulus Control in % ([1]; 25 g of ai/ha): 60%

sodium salt of 2-iodo-N-[(4-methoxy-6-methyl-1,3,5-triazin-2-yl)carbamoyl]benzenesulfonamide [Compound A-2]
Veronica persica Control in % ([2]; 2.5 g of ai/ha, 0%=no control, 100%=complete control): 0%
